Results: ChEMBL document CHEMBL1201862, “PubChem BioAssay data set” (2004)
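In this assay, cells in 96-well plates receive the compound at five concentrations for 48 hours. Endpoints are linearly interpolated between the surrounding concentrations. GI50 is the concentration that inhibits growth by half.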 Active and inactive are the calls of the source. Cut-off read from the data, not from the text of the source: active = GI50 up to about 1.1 µM and inactive = higher.

Assays:
Assay in all cases: NCI tumour cell line growth inhibition, 48 h
RPMI-8226 = system: RPMI-8226
HL-60 = system: HL-60
SW-620 = system: SW-620
UACC-257 = system: UACC-257
HT-29 = system: HT-29
SK-MEL-5 = system: SK-MEL-5
SF-539 = system: SF-539
LOX IMVI = system: LOX IMVI
LXFL 529 = system: LXFL 529
SK-OV-3 = system: SK-OV-3
SN12C = system: SN12C
ACHN = system: ACHN
HCT-116 = system: HCT-116
NCI-H23 = system: NCI-H23
HOP-62 = system: HOP-62
OVCAR-8 = system: OVCAR-8
CAKI-1 = system: CAKI-1

Measured: GI50

CC(=O)N1CCC2(c3ccccc3N(C(C)=O)C2c2ccc(O)cc2)C1C(=O)O (centres undefined)
inactive: RPMI-8226 > 100 µM | HL-60 > 100 µM | SW-620 > 100 µM | UACC-257 > 100 µM | HT-29 > 100 µM | SK-MEL-5 > 100 µM | SF-539 > 100 µM | LOX IMVI > 100 µM | LXFL 529 > 100 µM | SK-OV-3 > 100 µM | SN12C > 100 µM | ACHN > 100 µM | HCT-116 > 100 µM | NCI-H23 > 100 µM | HOP-62 > 100 µM | OVCAR-8 > 100 µM

CC(C)(C)OC1=C(OC(C)(C)C)C(O)(c2ccccc2)C1=O (centres undefined)
inactive: RPMI-8226 > 100 µM | HL-60 > 100 µM | SW-620 > 100 µM | HT-29 > 100 µM | SK-MEL-5 > 100 µM | SF-539 > 100 µM | LOX IMVI > 100 µM | LXFL 529 > 100 µM | SK-OV-3 > 100 µM | SN12C > 100 µM | ACHN > 100 µM | NCI-H23 > 100 µM | OVCAR-8 > 100 µM

COC(=O)C1=C(C(=O)OC)C2(C3C(SC)=CC(C)(C)CC3S1)N(Cc1ccccc1)CCN2Cc1ccccc1 (centres undefined)
inactive: RPMI-8226 18.3 µM | SW-620 > 100 µM | UACC-257 > 100 µM | HT-29 > 100 µM | SK-MEL-5 65.5 µM | SF-539 > 100 µM | LOX IMVI > 100 µM | LXFL 529 > 100 µM | SK-OV-3 > 100 µM | SN12C > 100 µM | ACHN 48.2 µM | CAKI-1 > 100 µM | HCT-116 > 100 µM | NCI-H23 > 100 µM | HOP-62 > 100 µM | OVCAR-8 > 100 µM

CCN(CC)CCCC(C)Nc1c(Sc2cnc3cc(Cl)ccc3c2NC(C)CCCN(CC)CC)cnc2cc(Cl)ccc12 (centres undefined)
inactive: RPMI-8226 1.91 µM | HL-60 1.82 µM | SW-620 1.58 µM | UACC-257 2.03 µM | HT-29 1.65 µM | LOX IMVI 1.78 µM | LXFL 529 1.92 µM | SK-OV-3 1.66 µM | SN12C 1.88 µM | ACHN 1.98 µM | CAKI-1 1.53 µM | HCT-116 1.37 µM | NCI-H23 3.3 µM | OVCAR-8 1.69 µM

Cc1ccc(S(=O)(=O)C(CC(=O)N2CCCC2)C(=O)c2ccccc2)cc1 (centres undefined)
inactive: HL-60 19.5 µM | SW-620 37.7 µM | UACC-257 > 100 µM | HT-29 > 100 µM | SK-MEL-5 > 100 µM | SF-539 > 100 µM | LOX IMVI 44.5 µM | LXFL 529 38.5 µM | SN12C > 100 µM | ACHN > 100 µM | CAKI-1 46.9 µM | HCT-116 55.6 µM | NCI-H23 > 100 µM | HOP-62 > 100 µM | OVCAR-8 > 100 µM

COc1ccc2c3c1C(=O)CCCC3CO2 (centres undefined)
inactive: RPMI-8226 > 100 µM | HL-60 > 100 µM | SW-620 > 100 µM | UACC-257 > 100 µM | HT-29 > 100 µM | SK-MEL-5 > 100 µM | SF-539 > 100 µM | LOX IMVI > 100 µM | LXFL 529 > 100 µM | SK-OV-3 > 100 µM | SN12C > 100 µM | ACHN > 100 µM | NCI-H23 > 100 µM | HOP-62 > 100 µM | OVCAR-8 > 100 µM

CC(SC(=O)Nc1ccc(/N=N/c2ccccc2)cc1)C(=O)O (centres undefined)
inactive: RPMI-8226 > 100 µM | HL-60 38.6 µM | SW-620 > 100 µM | UACC-257 98.6 µM | HT-29 68.4 µM | SF-539 88.5 µM | LOX IMVI > 100 µM | LXFL 529 98.4 µM | SN12C > 100 µM | ACHN 57.9 µM | CAKI-1 > 100 µM | HCT-116 > 100 µM | NCI-H23 > 100 µM | HOP-62 > 100 µM | OVCAR-8 57 µM
